Experimental data as given in US9856279B2 (AGIOS PHARMACEUTICALS, INC, priority 2011, dated 2018).

Key:
IDH1 R132H = IDH1 R132H (Homo sapiens, UniProt O75874, R132H); experiment: Assay for IDH1 R132H inhibitors (NADPH/aKG, resazurin detection); assay type: biochemical; conditions: enzyme assay of Example 12; read-out: IDH1R132H IC50
In short: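 Read-out is resorufin fluorescence (Ex544/Em590) 5 min after adding a 30 μM resazurin detection mix. Before that, mutant enzyme (0.2 μg/ml in its mix) ran 50 min at room temperature with compound, 8 uM NADPH and 2 mM aKG (mix levels) in Tris pH 7.5 with NaCl, MgCl2, BSA.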

HT1080 cells = experiment: Cellular assay for IDH1m inhibitors: inhibition of 2-HG production (LC-MS, 48 hours) in HT1080 cells; assay type: cell-based; conditions: Homo sapiens, HT-1080; inhibition of 2-HG production, HT1080 cells; read-out: HT1080 IC50
In short: (§1)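 Cells were seeded at 5000/well in DMEM with 10% FBS, incubated overnight, then treated with compound (0.2% DMSO final) for 48 h at 37° C. Medium 2-HG was quantified by LC-MS. IC50 is the concentration reducing 2-HG by 50% versus DMSO control, and CellTiter-Glo viability was read at 72 h.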

U87MG cells = experiment: Cellular assay for IDH1m inhibitors: inhibition of 2-HG production (LC-MS, 48 hours) in U87MG cells; assay type: cell-based; conditions: Homo sapiens, U-87 MG, inhibition of 2-HG production, U87R132H cells; read-out: U87R132H IC50
In short: as §1

IDH1 R132H, sequence (O75874 whole entry R132H): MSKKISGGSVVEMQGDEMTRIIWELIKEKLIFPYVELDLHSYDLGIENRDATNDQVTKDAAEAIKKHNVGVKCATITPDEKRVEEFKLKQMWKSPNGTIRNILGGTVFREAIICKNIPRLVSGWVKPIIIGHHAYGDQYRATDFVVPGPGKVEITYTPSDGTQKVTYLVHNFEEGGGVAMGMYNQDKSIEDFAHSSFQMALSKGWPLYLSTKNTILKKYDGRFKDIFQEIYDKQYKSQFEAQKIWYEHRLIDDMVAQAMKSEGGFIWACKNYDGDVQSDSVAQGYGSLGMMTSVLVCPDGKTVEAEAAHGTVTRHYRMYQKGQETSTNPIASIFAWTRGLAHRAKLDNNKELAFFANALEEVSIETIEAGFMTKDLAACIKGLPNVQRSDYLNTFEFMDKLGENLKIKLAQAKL

Row | IC50 (IDH1 R132H) | IC50 (HT1080 cells) | IC50 (U87MG cells) | SMILES
1 | < 500 nM | < 500 nM | < 500 nM | C=Cc1ccnc(Nc2cc(C#N)c(N3CCN(C(=O)CCO)[C@H](C)C3)nc2C2CC2)c1 [Compound 707, (R)-6-cyclopropyl-2-(4-(3-hydroxypropanoyl)-3-methylpiperazin-1-yl)-5-((4-vinylpyridin-2-yl)amino)nicotinonitrile]
2 | < 500 nM | < 500 nM | < 500 nM | C=Cc1cc(-c2cc(C#N)c(N3CCN(C(C)=O)[C@H](C4CC4)C3)nc2C2CC2)ccn1 [Compound 562, (R)-6-(4-acetyl-3-cyclopropylpiperazin-1-yl)-2-cyclopropyl-2′-vinyl-3,4′-bipyridine-5-carbonitrile]
3 | < 500 nM | 500 to 1000 nM | < 500 nM | COCCC(=O)N1CCN(c2nc(C3CC3)c(-c3ccc(NC(C)=O)cc3)c(C)c2C#N)C[C@H]1C [Compound 326, (R)—N-(4-{5-cyano-2-cyclopropyl-6-[4-(3-methoxy-propionyl)-3-methyl-piperazin-1-yl]-4-methyl-pyridin-3-yl}-phenyl)-acetamide]
4 | < 500 nM | < 500 nM | < 500 nM | C=Cc1cc(-c2cc(C#N)c(N3CCN(C(=O)CCOC)[C@H](C(C)C)C3)nc2C2CC2)ccn1 [Compound 631, (R)-2-cyclopropyl-6-(3-isopropyl-4-(3-methoxypropanoyl)piperazin-1-yl)-2′-vinyl-3,4′-bipyridine-5-carbonitrile]
5 | < 500 nM | < 500 nM | < 500 nM | C=Cc1cc(-c2c(C3CC3)nc(N3CCN(C(=O)CCO)[C@H](C4CC4)C3)c(C#N)c2C)ccn1 [Compound 589, (R)-2-cyclopropyl-6-(3-cyclopropyl-4-(3-hydroxypropanoyl)piperazin-1-yl)-4-methyl-2′-vinyl-3,4′-bipyridine-5-carbonitrile]
6 | < 500 nM | < 500 nM | < 500 nM | C=Cc1cc(-c2cc(C#N)c(N3CCN(C(=O)CCO)[C@H](C4CC4)C3)nc2C2CC2)cnn1 [Compound 686, (R)-6-cyclopropyl-2-(3-cyclopropyl-4-(3-hydroxypropanoyl)piperazin-1-yl)-5-(6-vinylpyridazin-4-yl)nicotinonitrile]
7 | < 500 nM | < 500 nM | < 500 nM | C=Cc1cc(-c2cc(C#N)c(N3CCN(C(=O)CCOC)[C@H](C4CC4)C3)nc2C2CC2)ncn1 [Compound 638, (R)-6-cyclopropyl-2-(3-cyclopropyl-4-(3-methoxypropanoyl)piperazin-1-yl)-5-(6-vinylpyrimidin-4-yl)nicotinonitrile]
8 | 500 to 1000 nM | 500 to 1000 nM | < 500 nM | C=Cc1nccc(-c2cc(C#N)c(N3CCN(C(=O)C4CC4)[C@H](C4CC4)C3)nc2C2CC2)n1 [Compound 496, (R)-2-(4-(cyclopropanecarbonyl)-3-cyclopropylpiperazin-1-yl)-6-cyclopropyl-5-(2-vinylpyrimidin-4-yl)nicotinonitrile]
9 | 500 to 1000 nM | 1000 to 10000 nM | 1000 to 10000 nM | COCCC(=O)N1CCN(c2nc(C(C)C)c(OCCNC(=O)OCc3ccccc3)cc2C#N)C[C@H]1C [Compound 272, (R)-benzyl 2-(5-cyano-2-isopropyl-6-(4-(3-methoxypropanoyl)-3-methylpiperazin-1-yl)pyridin-3-yloxy)ethylcarbamate]
10 | < 500 nM | < 500 nM | < 500 nM | C=Cc1cc(Oc2cc(C#N)c(N3CCN(C(=O)CCOC)[C@H](C4CC4)C3)nc2C2CC2)ccn1 [Compound 693, (R)-6-cyclopropyl-2-(3-cyclopropyl-4-(3-methoxypropanoyl)piperazin-1-yl)-5-(2-vinylpyridin-4-yloxy)nicotinonitrile]
11 | < 500 nM | 1000 to 10000 nM | 1000 to 10000 nM | C=CS(=O)(=O)Nc1cccc(-c2cc(C#N)c(N3CCN(C(=O)CCOC)[C@H](C)C3)nc2C2CC2)c1 [Compound 429, (R)—N-(3-(5-cyano-2-cyclopropyl-6-(4-(3-methoxypropanoyl)-3-methylpiperazin-1-yl)pyridin-3-yl)phenyl)ethenesulfonamide]
12 | < 500 nM | 1000 to 10000 nM | 1000 to 10000 nM | COCCC(=O)N1CCN(c2nc(C3CC3)c(-c3ccccc3OC)cc2C#N)C[C@H]1C(C)C [Compound 275, (R)-6-cyclopropyl-2-(3-isopropyl-4-(3-methoxypropanoyl)piperazin-1-yl)-5-(2-methoxyphenyl)nicotinonitrile]
13 | < 500 nM | < 500 nM | < 500 nM | C=Cc1cc(-c2cc(C#N)c(N3CCN(C(=O)C[C@H]4CCO4)[C@H](C)C3)nc2C2CC2)ccn1 [Compound 648, 2-cyclopropyl-6-((R)-3-methyl-4-(2-((R)-oxetan-2-yl)acetyl)piperazin-1-yl)-2′-vinyl-[3,4′-bipyridine]-5-carbonitrile]
14 | < 500 nM | < 500 nM | < 500 nM | C=CC(=O)N1CC=C(c2cc(C#N)c(N3CCN(C(=O)C4CC4)[C@H](C)C3)nc2C2CC2)C1 [Compound 612, (R)-5-(1-acryloyl-2,5-dihydro-1H-pyrrol-3-yl)-2-(4-(cyclopropanecarbonyl)-3-methylpiperazin-1-yl)-6-cyclopropylnicotinonitrile]
15 | < 500 nM | < 500 nM | < 500 nM | C=Cc1ccnc(Nc2c(C3CC3)nc(N3CCN(C(=O)CCO)[C@H](C4CC4)C3)c(C#N)c2C)c1 [Compound 725, (R)-6-cyclopropyl-2-(3-cyclopropyl-4-(3-hydroxypropanoyl)piperazin-1-yl)-4-methyl-5-((4-vinylpyridin-2-yl)amino)nicotinonitrile]
16 | < 500 nM | < 500 nM | < 500 nM | C=Cc1cnnc(-c2c(C3CC3)nc(N3CCN(C(=O)C[C@H]4CCO4)[C@H](C4CC4)C3)c(C#N)c2C)c1 [Compound 768, 6-cyclopropyl-2-((R)-3-cyclopropyl-4-(2-((R)-oxetan-2-yl)acetyl)piperazin-1-yl)-4-methyl-5-(5-vinylpyridazin-3-yl)nicotinonitrile]
17 | < 500 nM | < 500 nM | < 500 nM | C=Cc1ncc2c(-c3cc(C#N)c(N4CCN(C(=O)CCOC)[C@H](C5CC5)C4)nc3C3CC3)cccc2n1 [Compound 635, (R)-6-cyclopropyl-2-(3-cyclopropyl-4-(3-methoxypropanoyl)piperazin-1-yl)-5-(2-vinylquinazolin-5-yl)nicotinonitrile]
18 | < 500 nM | < 500 nM | < 500 nM | C=Cc1ccnc(Nc2cc(C#N)c(N3CCN(C(=O)CCOC)[C@H](C)C3)nc2C2CC2)n1 [Compound 736, (R)-6-cyclopropyl-2-(4-(3-methoxypropanoyl)-3-methylpiperazin-1-yl)-5-((4-vinylpyrimidin-2-yl)amino)nicotinonitrile]
19 | < 500 nM | 500 to 1000 nM | 500 to 1000 nM | COCCC(=O)N1CCN(c2nc(C3CC3)c(-c3ccc(N)cc3)c(C)c2C#N)C[C@H]1C [Compound 411, (R)-5-(4-aminophenyl)-6-cyclopropyl-2-(4-(3-methoxypropanoyl)-3-methylpiperazin-1-yl)-4-methylnicotinonitrile]
20 | < 500 nM | < 500 nM | < 500 nM | COCCC(=O)N1CCN(c2nc(C3CC3)c(-c3ccc(C#N)cc3)c(C)c2C#N)C[C@H]1C [Compound 347, (R)-5-(4-cyano-phenyl)-6-cyclopropyl-2-[4-(3-methoxy-propionyl)-3-methyl-piperazin-1-yl]-4-methyl-nicotinonitrile]
21 | < 500 nM | < 500 nM | < 500 nM | C=Cc1cc(-c2cc(C#N)c(N3CCN(C(=O)CCOC)[C@H](C)C3)nc2C2CC2)c2ccccc2n1 [Compound 592, (R)-6-cyclopropyl-2-(4-(3-methoxypropanoyl)-3-methylpiperazin-1-yl)-5-(2-vinylquinolin-4-yl)nicotinonitrile]
22 | < 500 nM | 500 to 1000 nM | < 500 nM | N#Cc1cc(Oc2ccnc(Cl)c2)c(C2CC2)nc1N1CCN(C(=O)CCO)[C@H](C2CC2)C1 [Compound 694, (R)-5-(2-chloropyridin-4-yloxy)-6-cyclopropyl-2-(3-cyclopropyl-4-(3-hydroxypropanoyl)piperazin-1-yl) nicotinonitrile]
23 | < 500 nM | < 500 nM | < 500 nM | C=Cc1cc(-c2cc(C#N)c(N3CCN(C(=O)CCO)[C@H](C(C)C)C3)nc2C2CC2)ccn1 [Compound 721, (R)-2-cyclopropyl-6-(4-(3-hydroxypropanoyl)-3-isopropylpiperazin-1-yl)-2′-vinyl-3,4′-bipyridine-5-carbonitrile]
24 | < 500 nM | 1000 to 10000 nM | 500 to 1000 nM | COCCC(=O)N1CCN(c2nc(C3CC3)c(-c3ccc(NC(C)=O)cc3)cc2C#N)C[C@H]1C [Compound 412, (R)—N-(4-(5-cyano-2-cyclopropyl-6-(4-(3-methoxypropanoyl)-3-methylpiperazin-1-yl)pyridin-3-yl)phenyl)acetamide]
25 | < 500 nM | < 500 nM | < 500 nM | C=Cc1ccc2ccc(Nc3cc(C#N)c(N4CCN(C(=O)CCOC)[C@H](C)C4)nc3C3CC3)cc2n1 [Compound 732, (R)-6-cyclopropyl-2-(4-(3-methoxypropanoyl)-3-methylpiperazin-1-yl)-5-(2-vinylquinolin-7-ylamino) nicotinonitrile]
